From PubChem BioAssay (NCI)
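Results reflect a 48-hour exposure of cells in 96-well plates to compound at five concentrations. The concentration for full growth arrest is given as TGI.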

Assays:
Assay in all cases: NCI-60 cell line screen, 48 h
[1] = test system: HT29 colon
[2] = test system: CCRF-CEM leukemia
[3] = test system: HCT-116 colon
[4] = test system: SNB-75 CNS
[5] = test system: EKVX NSCLC
[6] = test system: HCT-15 colon
[7] = test system: OVCAR-5 ovarian
[8] = test system: SF-268 CNS
[9] = test system: NCI-H23 lung
[10] = test system: SW-620 colon
[11] = test system: NCI-H522 lung
[12] = test system: SK-MEL-5 melanoma
[13] = test system: M14 melanoma
[14] = test system: SK-MEL-2 melanoma
[15] = test system: LOX IMVI melanoma
[16] = test system: MDA-MB-435
[17] = test system: MALME-3M melanoma
[18] = test system: COLO 205 colon
[19] = test system: 786-0 renal
[20] = test system: UACC-257 melanoma

| SMILES | TGI [1] [µM] | TGI [2] [µM] | TGI [3] [µM] | TGI [4] [µM] | TGI [5] [µM] | TGI [6] [µM] | TGI [7] [µM] | TGI [8] [µM] | TGI [9] [µM] | TGI [10] [µM] | TGI [11] [µM] | TGI [12] [µM] | TGI [13] [µM] | TGI [14] [µM] | TGI [15] [µM] | TGI [16] [µM] | TGI [17] [µM] | TGI [18] [µM] | TGI [19] [µM] | TGI [20] [µM] |
| --- | --- | --- | --- | --- | --- | --- | --- | --- | --- | --- | --- | --- | --- | --- | --- | --- | --- | --- | --- | --- |
| Clc1c2ccccc2nc2c1[nH]c1ccccc12 | 34.3 | > 100 | > 100 | > 100 | > 100 | > 100 | > 100 | > 100 | > 100 | > 100 | > 100 | 21.3 | > 100 | > 100 | > 100 | > 100 | > 100 | 11.8 | > 100 | > 100 |
| Cc1csc(NNC(=O)Nc2ccccc2)n1 | > 100 | > 100 | > 100 | > 100 | > 100 | > 100 | > 100 | > 100 | > 100 | > 100 | > 100 | > 100 | > 100 | > 100 | > 100 | > 100 | > 100 | > 100 | > 100 | > 100 |
| O=C1C(S(=O)(=O)c2ccccc2)=C(CS(=O)(=O)c2ccccc2)[C@@H](OCc2ccccc2)[C@@H]1OCc1ccccc1 | 26.3 | 42.7 | 27 | > 100 | > 100 | 44 | 75.4 | > 100 | 36.3 | 36.4 | 35.9 | 40.2 | 32.1 | 33.5 | 32.9 | 92.7 | 36.1 | 61.3 | > 100 | 66.3 |
| COc1cccc(-c2c(-c3ccccc3)[nH]c(C)c2C(=O)ONC(=O)c2ccccc2)c1 | > 45.2 | > 27.3 | 15 | 18.9 | 23.8 | 26.1 | 26.2 | 22 | 25.9 | 40.5 | 14.2 | 23.9 | 20 | 23.6 | 3.91 | 13.7 | 28.4 | 32.6 | 15.5 | 26.6 |
| COc1cc(/C=N/NC2=NCCCCN2)ccc1O | > 100 | > 100 | > 100 | > 100 | > 100 | > 100 | > 100 | > 100 | > 100 | > 100 | > 100 | > 100 | > 100 | > 100 | > 100 | > 100 | > 100 | > 100 | > 100 | > 100 |
| O=c1oc2ccc3ccccc3c2cc1-c1nc2ccc([N+](=O)[O-])cc2o1 | > 100 | > 100 | > 100 | > 100 | > 100 | > 100 | > 100 | > 90.2 | > 86.9 | > 100 | > 100 | > 100 | > 75.3 | > 100 | > 91.3 | > 100 | > 100 | > 100 | > 55.3 | > 100 |
| N#Cc1c(N2CCN(c3ccc([N+](=O)[O-])cc3)CC2)[n+](=O)c2ccccc2n1[O-] | > 100 | > 100 | > 100 | > 100 | > 100 | > 100 | > 100 | 0.921 | > 100 | > 100 | > 100 | > 100 | > 100 | > 100 | > 100 | > 100 | > 100 | > 100 | > 100 | > 100 |
| Cc1cccc2c1c(=O)c1c(O)cc(O)cc1n2C | > 100 | > 100 | > 100 | > 100 | > 100 | > 100 | > 100 | > 100 | > 100 | > 100 | > 100 | > 100 | > 100 | > 100 | > 100 | > 100 | > 100 | > 100 | > 100 | > 100 |
| CN(CCCn1ccnc1[N+](=O)[O-])CCCn1ccnc1[N+](=O)[O-] | > 100 | > 100 | > 100 | > 100 | > 100 | > 100 | > 100 | > 100 | > 100 | > 100 | > 100 | > 100 | > 100 | > 100 | > 100 | > 100 | > 100 | > 100 | > 100 | > 100 |
| CCCC(=O)NC(Nc1ccc(S(=O)(=O)Nc2ccc(OC)nn2)cc1)(C(F)(F)F)C(F)(F)F | > 100 | > 100 | > 100 | > 100 | > 100 | > 100 | > 100 | > 100 | > 100 | > 100 | > 100 | > 100 | > 100 | > 100 | > 100 | > 100 | > 100 | > 100 | > 100 | > 100 |
| O=c1c2c(F)c(F)c(F)c(F)c2sc2nccn12 | 34.7 | 29.6 | 27.7 | 50.4 | 50.2 | 29 | 36.3 | 36.2 | 34.9 | 33 | 37.2 | 35.8 | 32 | 38.5 | 26.7 | 28.6 | 35.4 | 32.7 | 29.3 | 45.5 |
| CC1C(c2ccccc2O)c2cc3c(cc2OC1N1CCOCC1)OCO3 (stereo not given) | 68.4 | 61.3 | 75.9 | 91.3 | > 100 | > 100 | > 100 | > 100 | 81 | > 100 | 37.8 | 62.3 | > 100 | 72.5 | 41.3 | 82.8 | 35.1 | 46.6 | > 100 | 47 |
| CC1CN=C(Nc2ccc(F)c(Cl)c2)S1 (stereo not given) | > 100 | > 100 | > 100 | > 100 | > 100 | > 100 | > 100 | > 100 | > 100 | > 100 | > 100 | > 100 | > 100 | > 100 | > 100 | > 100 | > 100 | > 100 | > 100 | > 100 |
| CCCCc1c2c(c(C)c3c1C(=O)OC3)Oc1ccccc1O2 | > 40.9 | > 100 | 27.1 | 13.4 | > 100 | > 100 | > 100 | > 100 | > 100 | > 42 | 1.15 | > 26.2 | > 100 | > 33.7 | > 100 | 1.59 | > 100 | 7.69 | > 36.9 | 96.9 |
| NC(Cc1ccc(B(O)O)cc1)C(=O)NC(CO)CO (stereo not given) | > 100 | > 100 | > 100 | > 100 | > 100 | > 100 | > 100 | > 100 | > 100 | > 100 | > 100 | > 100 | > 100 | > 100 | > 100 | > 100 | > 100 | > 100 | > 100 | > 100 |
| N/C(=N\S(=O)(=O)c1cc(Cl)c(Oc2ccc([N+](=O)[O-])cc2Cl)c(Cl)c1)Nc1ccc(Cl)cc1 | 54.4 | 52.1 | 34.3 | 35.2 | 36.6 | 33.3 | 53.6 | > 100 | 32.1 | 45.9 | > 100 | 31.3 | 36.4 | 36.2 | 31.6 | 33.6 | > 100 | 30.5 | 35.1 | 32.8 |
| CSc1c(C#N)c(S)[nH]c(=O)c1C#N | > 100 | > 100 | > 100 | > 100 | > 100 | > 100 | > 100 | > 100 | > 100 | > 100 | > 100 | 98.9 | > 100 | > 100 | > 100 | > 100 | 51.5 | > 100 | > 100 | > 100 |
| O=C1CC2SC(COCc3ccccc3)(CCN2Cc2ccccc2)C1 (stereo not given) | > 100 | > 100 | > 100 | > 100 | > 100 | > 100 | > 100 | > 100 | > 100 | > 100 | > 100 | 34.8 | > 100 | > 100 | > 100 | > 100 | > 100 | > 100 | > 100 | > 100 |
| C1CN2CCNCCN(CCN1)CC2 | > 100 | > 100 | > 100 | > 100 | > 100 | > 100 | > 100 | > 100 | > 100 | > 100 | > 100 | > 100 | > 100 | > 100 | > 100 | > 100 | > 100 | > 100 | > 100 | > 100 |
